Laboratory results from US20050063998A1, “Oral solution containing galantamine and a sweetening agent” (priority 1999, published 2005).
“Also recorded” adds a separate entry of the source. Counter-ions that a name gives are not always drawn.

Assay: Stability of a galantamine hydrobromide aqueous solution as a function of pH (HPLC, degradation products)
Format: physicochemical
Details: 10 mg/ml aqueous solution; neutral (water pH 5.2); 80° C.; storage 24 hours
Description: (c) Stability of a Galantamine Hydrobromide Aqueous Solution as a Function of pH
A galantamine hydrobromide 10 mg/ml aqueous solution was stored in acid, neutral and alkaline conditions at 80° C. for 1 up to 24 hours. After storage, the solutions were analyzed using HPLC for the presence of degradation products.

Compound: COc1ccc2c3c1O[C@H]1C[C@@H](O)C=C[C@@]31CCN(C)C2 [Galantamine hydrobromide, [4aS-(4aα, 6β, 8aR*)]-4a, 5,9,10,11,12-hexa-hydro-3-methoxy-11-methyl-6H-benzofuro[3a,3,2-ef][2]benzazepin-6-ol]
- Degradation compounds: remained stable; also recorded: No degradation detected
